Residues, ends and D or L forms follow the SMILES beside them. No end group written: not given here. *: point of attachment. X1 = COc1cccc2c1C(=O)c1c(O)c3c(c(O)c1C2=O)C[C@@](O)(C(=O)CO)C[C@@H]3O[C@H]1C[C@H](NC(=O)CCN2C(=O)CC(*)C2=O)[C@H](O)[C@H](C)O1
Key:
[1] = system: HeLa cells; test: Cytotoxicity (resazurin) assay in HeLa cells; details: 24 h; for EC50: 37 °C, 2.5-70 µM, Dox data not shown
Method: For cell viability assay, cells were (15,000 HeLa, 17,000 MCF-7 and 12,000 HFF-1 cells per well) seeded onto a 96-well plate and grown to 80–90% confluency. Cells were incubated with several peptide concentrations in a serum-free growth medium for 24 h under standard growth conditions. For the positive control, cells were treated with 70% EtOH for 7 min. After washing with DPBS, resazurin solution (10% in serum-free media, v/v) was incubated with the cells for 1 h under standard growth conditions. The cell viability was determined relative to untreated cells by measurement of the resorufin product at 595 nm (λex = 550 nm) on a Tecan infinite M200 plate reader (Tecan Group AG, Männedorf, Switzerland).
Figure 2 (A,B): Cytotoxicity profiles of the peptides in HeLa and HEK-293 cells. Cells were cultured and incubated at pH 7.4 for 24 h with different concentrations of peptide solutions. Untreated cells served as negative control; cells treated with 70% ethanol as positive control. Values from the positive control were subtracted from all data, and the untreated cells were set to 100%; assays were performed with n = 3 in triplicate. (C): Flow cytometry analysis of HeLa or HEK-293 cells after incubating 1 and 10 µM peptide solutions for 30 min at 37 °C; assays were conducted in triplicate n = 3. (D): Confocal laser scanning microscopy analysis of 10 µM CF-labeled peptides after 30 min of incubation in HeLa cells. Green: CF-labeled peptides; blue: Hoechst 33342 nuclear stain; scale bar is 10 µm.
Figure 5 (A): Cytotoxicity assay using HFF-1 cells. Different PDC concentrations were incubated with the cells for 24 h at 37 °C and a resazurin assay was conducted. (B): Dose-response curves for peptide drug conjugates were obtained using the resazurin assay. For this, HeLa cells were treated with various conjugate concentrations (2.5–70 µM) for 24 h at 37 °C. (C): Quantification of PDC internalization in HeLa cells; 10 µM PDC solutions were incubated with cells for 30 min at 37 °C and cells were inspected using a flow cytometer; assays were conducted in triplicate n = 3.

[2] = system: HFF-1 cells; test: Cytotoxicity (resazurin) assay in HFF-1 cells; assay type: cell-based, human; details: 24 h treatment, different concentrations, lowest viability reached
[3] = system: MCF-7 cells; test: Cell viability (resazurin) assay in MCF-7 cells at pH 7.4 or 6.8; assay type: cell-based, human; details: MCF-7 cells cultivated at pH 7.4 or 6.8, 24 h, various concentrations, triplicate n = 3
Method: For pH-dependent studies, the cells were cultivated and incubated at pH 6.8 or 7.4, respectively.
Figure 1 (A,B): Cell-viability assays using MCF-7 cells. Cells were cultivated at pH 7.4 or pH 6.8, respectively, for 24 h using different concentrations of peptide solutions. […] (C): Cellular uptake of histidine peptides in MCF-7 cells.

[4] = system: HeLa cells; test: Cellular uptake by flow cytometry in HeLa cells; assay type: cell-based, human; details: 30 min; for cellular uptake: 1 and 10 µM CF-labeled peptide, 37 °C, serum-free medium
Method: (§1) Monolayer cellular uptake was quantified using flow cytometry. Cells were seeded onto a 24-well plate (HeLa: 90,000, HEK293: 100,000 and MCF-7 130,000 cells per well) and grown to 80–90% confluency. Then, cells were incubated with the labeled peptides/conjugates in a serum-free medium at 37 °C for various incubation times, and subsequently washed twice with PBS and detached with indicator-free trypsin resuspended in an indicator-free serum-containing medium. The cell suspension was transferred into a 96-well FACS plate and fluorescence was then measured by a Guava easyCyte flow cytometer (Merck, Darmstadt, Germany).The blue laser was used for all measurements, FSC (1137–1538), SSC (3020–4086), Grn-B (647–875) and Red-B (694–939). Cellular autofluorescence of untreated control cells was subtracted.

[5] = system: HEK293 cells; test: Cellular uptake by flow cytometry in HEK293 cells; assay type: cell-based, human; details: 1 and 10 µM CF-labeled peptide, 30 min, 37 °C, serum-free medium
Method: as §1

[6] = system: HeLa cells; test: Fluorescence microscopy of intracellular distribution in HeLa cells; assay type: cell-based, human; details: 30 min; for intracellular accumulation / uptake pattern: 10 µM CF-labeled peptide, confocal fluorescence microscopy; for intracellular distribution of PDC: 5 µM conjugate, 37 °C, fluorescence microscopy
Method: Cells were seeded into 8-well plates (HeLa cells 35,000 and HFF-1 25,000 cells per well, respectively) and grown to 80–90% confluency. Cells were treated with 10 μM CF- or dox-labeled peptides in a serum-free medium for 30 min at 37 °C. Ten minutes prior to the end of the incubation time, nuclei were stained with Hoechst33342. The peptide solution was removed, and cells were washed five times with PBS and covered with fresh medium including FBS. Microscopic analysis was performed using an inverse confocal TCS SP8 microscope (Leica Microsystems, Wetzlar, Germany), equipped with a 63× oil-immersion objective. Images were recorded with LAS X software (LAS_X_Core_3.7.6_25997, Leica Microsystems, Wetzlar, Germany). For the GUV analysis and the uptake of the peptide-drug conjugates the Keyence fluorescence tabletop microscope BZ-X800E (Keyence, Osaka, Japan), with a 60× oil immersion lens was used. Images were recorded with Keyence software (BZ-800X_Analyzer 1.1.1.8, Keyence, Osaka: Japan) and evaluated with Fiji.
Figure 6 Fluorescence microscope analysis of 5 µM conjugates after 30 min of incubation at 37 °C in HeLa and HFF-1 cells. Red: peptides coupled to red fluorophore Doxorubicin; blue: Hoechst 33342 nuclear stain; BF: brightfield to identify living cells; scale bar is 20 µm.

[7] = system: HEK-293 spheroids; test: Flow cytometry of HEK-293 spheroids; assay type: cell-based, human; details: 10 µM CF-labeled peptides, 30 min or 1 h
Method: For the preparation and seeding of spheroids, cells were washed and trypsinized as described above. Cells were transferred into a fresh 15 mL centrifuge tube and centrifuged for 5 min at 300× g and rt. The supernatant was removed carefully and the pellet was resuspended in an appropriate medium supplemented with FBS. Cells were counted and a cell mixture was prepared, which would be sufficient for 100 drops (3 mL). Within this mixture a total amount of 1.5 × 10^6 cells (HEK-293 and HeLa cells) and 20% (v/v) methylcellulose (1.2 mg/mL) were required. The missing volume was filled up with an appropriate medium containing FBS; 30 μL drops were pipetted into the inverted lid of a petri dish (15,000 cells per drop), the bottom was covered with PBS and spheroids were grown in hanging drops for two or three days at 37 °C and 5% CO2, respectively.
For flow cytometry studies with tumor spheroids, the spheroids were prepared and grown as described above (4.7). […] After the spheroids started to fall apart, 850 μL of medium with FBS (indicator free) was added and the spheroids were resuspended to generate a homogenous cell suspension; 200 μL of each sample were transferred into a fresh round-bottom 96-well plate and analyzed on a Guava® easyCyte flow cytometer (Merck, Darmstadt, Germany). […]

[8] = triplicate n = 3, listed as sC18^ΔE

COc1cccc2c1C(=O)c1c(O)c3c(c(O)c1C2=O)C[C@@](O)(C(=O)CO)C[C@@H]3O[C@H]1C[C@H](N)[C@H](O)[C@H](C)O1.Cl [Dox, doxorubicin hydrochloride, reference compound]
EC50 ([1]; resazurin assay): 6.78 µM
cell viability [2]: 72%

COc1cccc2c1C(=O)c1c(O)c3c(c(O)c1C2=O)C[C@@](O)(C(=O)CO)C[C@@H]3O[C@H]1C[C@H](NC(=O)CCN2C(=O)CC(SC[C@H](N)C(=O)NCC(=O)N[C@@H](CC(C)C)C(=O)N[C@@H](CCCNC(=N)N)C(=O)N[C@@H](CCCCN)C(=O)N[C@@H](CCCNC(=N)N)C(=O)N[C@@H](CC(C)C)C(=O)N[C@@H](CCCNC(=N)N)C(=O)N[C@@H](CCCCN)C(=O)N[C@@H](Cc3ccccc3)C(=O)N[C@@H](CCCNC(=N)N)C(=O)N[C@@H](CC(N)=O)C(=O)N[C@@H](CCCCN)C(N)=O)C2=O)[C@H](O)[C@H](C)O1 (stereo partly drawn) [PDC-3] (H-C(X1)GLRKRLRKFRNK-NH2)
EC50 ([1]; resazurin assay): 27 µM

GLRKRLRKFRNKIKEK-NH2 [sC18]
cytotoxicity [3]: slightly more toxic at higher concentrations
cell viability at 100 µM ([1]; concentration increased up to 100 µM, resazurin assay): ≥ 75%
concentration up to which no toxic effect was observed ([1]; pH 7.4, resazurin assay, n = 3 in triplicate): 50 µM
cellular uptake ([4]; triplicate n = 3): to a little extent
cellular uptake [4, 8]: highly significant and enhanced internalization
cellular uptake ([5]; triplicate n = 3): to a little extent
cellular uptake [5, 8]: highly significant and enhanced internalization
intracellular accumulation / uptake pattern [6]: far lower compared to the other two novel peptides
intracellular accumulation / uptake pattern ([6]; listed as sC18^ΔE): accumulated in a dot-like manner within the cell interior and did not reach the nuclei
accumulation in spheroids [7]: most efficient variants

CC[C@H](C)[C@H](NC(=O)[C@H](CCCCN)NC(=O)[C@H](CC(N)=O)NC(=O)[C@H](CCCNC(=N)N)NC(=O)[C@H](Cc1ccccc1)NC(=O)[C@H](CCCCN)NC(=O)[C@H](CCCNC(=N)N)NC(=O)[C@H](CC(C)C)NC(=O)[C@H](CCCNC(=N)N)NC(=O)[C@H](CCCCN)NC(=O)[C@H](CCCNC(=N)N)NC(=O)[C@H](CC(C)C)NC(=O)CNC(=O)[C@@H](N)CSC1CC(=O)N(CCC(=O)N[C@H]2C[C@H](O[C@H]3C[C@](O)(C(=O)CO)Cc4c(O)c5c(c(O)c43)C(=O)c3c(OC)cccc3C5=O)O[C@@H](C)[C@H]2O)C1=O)C(=O)N[C@@H](CCCCN)C(=O)N[C@@H](CCC(=O)O)C(=O)N[C@@H](CCCCN)C(N)=O (stereo partly drawn) [PDC-1] (H-C(X1)GLRKRLRKFRNKIKEK-NH2)
EC50 ([1]; resazurin assay): 15.3 µM
intracellular distribution of PDC [6]: more fluorescence was also measured within the nuclei

CC[C@H](C)[C@H](NC(=O)[C@H](CCCCN)NC(=O)[C@H](CC(N)=O)NC(=O)[C@H](CCCNC(=N)N)NC(=O)[C@H](Cc1ccccc1)NC(=O)[C@H](CCCCN)NC(=O)[C@H](CCCNC(=N)N)NC(=O)[C@H](CC(C)C)NC(=O)[C@H](CCCNC(=N)N)NC(=O)[C@H](CCCCN)NC(=O)[C@H](CCCNC(=N)N)NC(=O)[C@H](CC(C)C)NC(=O)CNC(=O)[C@@H](N)CSC1CC(=O)N(CCC(=O)N[C@H]2C[C@H](O[C@H]3C[C@](O)(C(=O)CO)Cc4c(O)c5c(c(O)c43)C(=O)c3c(OC)cccc3C5=O)O[C@@H](C)[C@H]2O)C1=O)C(=O)N[C@@H](CCCCN)C(=O)N[C@@H](CCCCN)C(N)=O (stereo partly drawn) [PDC-2] (H-C(X1)GLRKRLRKFRNKIKK-NH2)
EC50 ([1]; resazurin assay): 14.5 µM
PDC internalization ([4]; 5 µM PDC (text; legend of Figure 5C: 10 µM), doxorubicin red fluorescence): enhanced compared to the other two
intracellular distribution of PDC [6]: clustering inside the cytosol

From publication PMC9570898, “Comparing Variants of the Cell-Penetrating Peptide sC18 to Design Peptide-Drug Conjugates” (Molecules, 2022)
